Assay results published in PMC9936538, “Structure–Activity Relationship of N-Ethyl-Hexedrone Analogues: Role of the α-Carbon Side-Chain Length in the Mechanism of Action, Cytotoxicity, and Behavioral Effects in Mice” (ACS Chemical Neuroscience, 2023).
pIC50, pKi: −log10 of the molar value.

Legend:
hDAT = target: T1, hDAT (Homo sapiens, UniProt Q01959); assay: Transporter binding, [3H]WIN 35,428 binding at hDAT (HEK293 membranes)
T1 construct: expressed in transfected cells; host or cells: HEK293
Method: (§1) For membrane preparation, cells were harvested from 80 to 90% confluent dishes. HEK293 cells were washed with ice-cold phosphate-buffered saline (PBS), mechanically detached from the dish using a plastic scraper, and pelleted by centrifugation (400g for 10 min at 4 °C). The pellet was resuspended in HME buffer (20 mM HEPES NaOH, 1 mM EDTA, 2 mM MgCl2; pH 7.4), subjected to two freeze–thaw cycles in liquid nitrogen and homogenized through sonication at 4 °C. Membranes were then collected by centrifugation (40,000g for 30 min at 4 °C) and resuspended in an appropriate volume of HME buffer. The different membrane preparations aliquots were kept at −80 °C. Protein concentration was determined using the Bio-Rad Protein Reagent (Bio-Rad Laboratories, Hercules, CA).
(§2) Binding assays were performed as described.[6] […] This nonspecific binding also allows subtracting from the total binding values of the binding to other components such as membrane lipids or microfiber filters. Incubation was performed for 1 h at 22 °C. Binding reactions are stopped by rapid filtration of the membranes through GF/C glass microfiber filters presoaked with 0.5% polyethyleneimine and rapid washing with ice-cold wash buffer (120 mM NaCl, 2 mM MgCl2, 10 mM Tris, and 100 μM ZnCl2 for hDAT, and […], 2 mM MgCl2, and 10 mM Tris, for hSERT). Thereafter, the filters are placed into vials, a scintillation cocktail is added and trapped radioactivity is quantified by liquid scintillation counting. Specific binding of each drug to the transporter was defined as the difference between total binding (binding buffer in absence of the drug) and nonspecific binding. For each cathinone, four independent experiments carried out on duplicates were performed.
(§3) For in vitro assays, data were normalized with 100% defined as the mean of the technical replicates in the control group and expressed as mean ± SEM. Nonlinear regression was used to fit the different competition curves. Data were plotted and best fitted to a sigmoidal dose–response curve from which an IC50 or LC50 value was obtained. Transporter ratios were calculated as (1/DAT IC50: 1/SERT IC50). […] The Cheng–Prusoff equation was used to calculate Ki (affinity): Ki = EC50/(1 + [radioligand concentration/Kd]).[65] The sample size for behavioral experiments was determined using GPower software. One-way or two-way ANOVA, and subsequent Tukey’s posthoc test, conducted only if F was significant, was used to determine the effects of cathinones on cytotoxicity, HLA, OF, and CPP experiments. The α error probability was set at 0.05 (p < 0.05). The exact size group for the behavioral experiments is shown in the corresponding figure legends. All statistic calculations were carried out using GraphPad Prism (GraphPad software, San Diego, CA, USA).

hSERT [1] = target: T2, hSERT (Homo sapiens, UniProt P31645); assay: Transporter binding, [3H]imipramine binding at hSERT (HEK293 membranes)
T2 construct: expressed in transfected cells; host or cells: HEK293
Method: as §1, §2, §3

hSERT [2] = target: T2, hSERT; assay: Monoamine uptake inhibition, [3H]5-HT uptake at hSERT in transfected HEK293 cells; type: cell-based
Method: Human embryonic kidney cells (HEK293) stably transfected with the human DAT and SERT were used for both the uptake inhibition and transporter binding assays.[6] Cells were cultured in DMEM supplemented with heat-inactivated 10% fetal bovine serum (FBS), […], and 100 U/mL penicillin at 37 °C in a 5% CO2 humidified atmosphere. Geneticin (G418; 50 μg/mL) was added to maintain the selection process. Upon approximately 80% confluence, cells were washed with 5 mL of phosphate-buffered saline (PBS) and 1 mL of trypsin/EDTA was added. After 3 min, 9 mL of DMEM was added to stop cell trypsinization. If necessary, centrifugation was performed to pellet the cells. Cells were then resuspended, counted, and seeded onto poly-D-lysine coated (24 h/prior to the experiment) 96-well plates at a density of 0.36 million cells per well for the uptake inhibition assays.
Assays were performed as previously described.[8] On the test day, the medium was removed from the cell culture 96-well plates and immediately replaced with 200 μL of Krebs-HEPES-buffer (KHB; 10 mM HEPES, 120 mM NaCl, 3 mM KCl, 2 mM CaCl2·2H2O, 2 mM MgCl2·6H2O supplemented with 20 mM D-glucose; pH 7.3). To ensure equilibrated conditions, cells were incubated with different concentrations of the drugs in KHB at a final volume of 50 μL/well for 5 min (preincubation). The preincubation solution was removed, and cells were incubated with the tritiated compounds, 0.02 μM [^3H]MPP^+ for hDAT and 0.1 μM [^3H]5-HT for hSERT, together with various concentrations of the test drugs in KHB. The uptake incubation times were 3 min for hDAT and 1 min for hSERT. The reaction was stopped by rapid removal of the incubation solution and washout with ice-cold KHB. Cells were lysed with 1% sodium dodecyl sulfate, and lysates were subsequently transferred to vials containing scintillation fluid. Radioactivity was quantified with a beta-scintillation counter (PerkinElmer, Waltham, MA, USA). The uptake in the absence of the test drugs was normalized to 100%, and the uptake in the presence of various concentrations of cathinones was expressed as a percentage thereof. […] Four independent experiments carried out on triplicates were performed.
as §3

Swiss CD-1 mice = assay: Horizontal locomotor activity (HLA) in mice; type: in vivo; conditions: for shape of the dose response of HLA: 3, 10, 30 mg/kg i.p., ceiling at highest dose 30 mg/kg; for HLA (total distance traveled in 60 min) vs saline / duration of the significant increase in locomotor activity: 3 mg/kg i.p.; for duration of the significant increase in locomotor activity: 5 min blocks
Method: Male Swiss CD-1 mice (Janvier, Le Genest, France) weighing 30–35 g (6–8 weeks old), housed in temperature-controlled conditions (22 ± 1 °C) under a 12 h light/dark cycle and with free access to food and drinking water (standard laboratory diet, Panlab SL, Barcelona, Spain), were randomly assigned to an experimental group. Efforts were made to minimize animal use and suffering.
In the habituation phase, which lasted for two consecutive days, mice received an intraperitoneal (i.p.) saline injection and were immediately placed into a black Plexiglass OF arena (25 × 25 × 40 cm) under low-light conditions and white noise for 30 min. On the test day, the HLA was measured as described.[8] […] HLA was video-monitored for 1 h and a specific tracking software (Smart 3.0 Panlab, Barcelona, Spain) was used to measure their total traveled distance (in cm). The doses were chosen according to the psychostimulant effect induced by structurally related synthetic cathinones published in previous studies by our research group.[8]

T1 sequence (Q01959 whole entry): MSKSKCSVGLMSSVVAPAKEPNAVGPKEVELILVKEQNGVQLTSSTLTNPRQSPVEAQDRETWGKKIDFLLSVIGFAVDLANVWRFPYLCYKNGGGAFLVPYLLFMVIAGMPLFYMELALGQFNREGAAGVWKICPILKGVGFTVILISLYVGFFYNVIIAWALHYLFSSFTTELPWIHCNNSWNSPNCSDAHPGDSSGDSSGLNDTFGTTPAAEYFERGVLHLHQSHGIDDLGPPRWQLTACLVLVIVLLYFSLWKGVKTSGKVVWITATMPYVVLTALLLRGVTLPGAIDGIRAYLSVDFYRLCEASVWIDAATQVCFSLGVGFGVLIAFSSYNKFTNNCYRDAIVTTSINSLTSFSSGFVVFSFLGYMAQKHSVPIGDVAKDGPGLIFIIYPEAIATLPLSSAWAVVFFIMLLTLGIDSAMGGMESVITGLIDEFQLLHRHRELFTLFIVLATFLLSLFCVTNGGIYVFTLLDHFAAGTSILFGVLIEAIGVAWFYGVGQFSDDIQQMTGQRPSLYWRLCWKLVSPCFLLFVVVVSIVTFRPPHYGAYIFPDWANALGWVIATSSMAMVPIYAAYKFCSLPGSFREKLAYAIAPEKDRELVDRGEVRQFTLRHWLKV
T2 sequence (P31645 whole entry): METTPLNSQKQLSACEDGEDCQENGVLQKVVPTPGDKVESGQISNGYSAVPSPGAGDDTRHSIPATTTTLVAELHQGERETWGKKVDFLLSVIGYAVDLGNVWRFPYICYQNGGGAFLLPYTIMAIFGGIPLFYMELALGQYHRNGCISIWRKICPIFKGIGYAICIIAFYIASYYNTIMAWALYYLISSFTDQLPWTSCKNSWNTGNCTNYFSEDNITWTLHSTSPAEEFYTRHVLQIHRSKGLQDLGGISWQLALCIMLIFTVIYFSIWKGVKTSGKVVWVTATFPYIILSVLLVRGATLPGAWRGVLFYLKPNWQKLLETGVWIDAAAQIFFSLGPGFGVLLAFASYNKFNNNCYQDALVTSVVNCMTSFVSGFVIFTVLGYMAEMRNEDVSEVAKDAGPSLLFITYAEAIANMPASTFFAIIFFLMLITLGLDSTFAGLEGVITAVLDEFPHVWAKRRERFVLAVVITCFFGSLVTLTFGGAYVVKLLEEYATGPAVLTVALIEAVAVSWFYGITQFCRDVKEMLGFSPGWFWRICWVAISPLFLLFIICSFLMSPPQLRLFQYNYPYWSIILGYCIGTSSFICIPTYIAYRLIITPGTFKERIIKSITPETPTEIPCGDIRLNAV

Structure (SMILES)	pKi (hDAT)	pKi (hSERT [1])	pIC50 (hSERT [2])	time at which the locomotor effect ended (Swiss CD-1 mice; 10 mg/kg i.p., 60 min session)	shape of the dose response of HLA (Swiss CD-1 mice)	HLA (total distance traveled in 60 min) vs saline (Swiss CD-1 mice)	duration of the significant increase in locomotor activity (Swiss CD-1 mice)
CCCCCC(NCC)C(=O)c1ccccc1 (stereo not shown) [NEHP, N-ethyl-heptedrone]	6.97	4.39	< 4.00	< 60 min	dose–response relationship		
CCNC(C)C(=O)c1ccccc1 (stereo not shown) [NEC, N-ethyl-cathinone]	5.63	< 4.00	< 4.00		dose–response relationship		
CCCC(NCC)C(=O)c1ccccc1 (stereo not shown) [NEPD, N-ethyl-pentedrone]	7.38	4.61	4.12		ceiling effect	significant effect	40 min
CCCCC(NCC)C(=O)c1ccccc1 (stereo not shown) [NEH, N-ethyl-hexedrone]	6.92	4.44	< 4.00		dose–response relationship		
CCNC(CC)C(=O)c1ccccc1 (stereo not shown) [NEB, N-ethyl-buphedrone]	6.70	4.05	4.29		ceiling effect	significant effect	15 min
